{
  "source": "patent US8236354B1",
  "about": "“Use of immunomodulators for the treatment of cancer” (ZOR Pharmaceuticals, LLC, priority 2012, dated 2012)",
  "test_system": "advanced (unresectable or metastatic) pancreatic adenocarcinoma",
  "experiment": "Phase 3 double-blind, randomized, placebo-controlled 3-stage trial: survival and time to symptom progression",
  "format": "in vivo, human",
  "settings": "for Median survival time from entry into study Stage 3 to death from any cause: Intention to Treat, Stage 3 test product plus 5-FU",
  "description": "This was a double-blind, multicenter, randomized, 2-arm, parallel group, 3-stage trial. Median survival was the primary end-point calculated from Kaplan-Meier plots of survival of the Intention to Treat data set.\nThe blood pharmacokinetic profiles of gemcitabine and VIRULIZIN® were assessed by an independent (unblinded) pharmacokinetics assessor. Stage 1 was performed at selected sites. Immune stimulation assays were also to be performed in these patients.\nThe decision to discontinue patients from Stage 2 and move them into Stage 3 and to continue or discontinue study treatment was at the discretion of the investigator.\nHowever, if the investigator believed further chemotherapy was not in the best interest of the patient (based on hematological profile, symptom progression or no evidence of clinical benefit), the patient continued to receive best supportive care, with or without continued injections of VIRULIZIN® or placebo. The first 18 patients entering Stage 3 and receiving VIRULIZIN® or placebo plus intravenous infusions of 5-FU were to have blood samples taken to assess the pre- and post-dose plasma concentrations of 5-FU.\nMale or female patients, aged 18 years or older, with advanced (unresectable or metastatic) pancreatic adenocarcinoma (tumor staging definition—tumor, lymph nodes, metastasis [TNM] stages II, III or IV) who had not received previous systemic chemotherapy, who had Eastern Cooperative Oncology Group (ECOG) Score 0, 1 or 2, and life expectancy greater than or equal to 12 weeks were included in the study.\nVIRULIZIN® or placebo was administered as intramuscular injections of 3 mL with dosing 3 times weekly (Monday, Wednesday, Friday) in Stages 1, 2 and 3.\nFollowing pain stabilization screening, all randomized patients in Stages 1 and 2 received 30-minute intravenous infusions of gemcitabine at a dose of 1 g/m2 weekly for the first 7 weeks, followed by a week of rest. Subsequent cycles consisted of 28-day cycles with gemcitabine dosing on days 1, 8 and 15. Guidelines for dose reduction in case of toxicity were provided from the Official Product Prescribing Guidelines. Dosing continued until intolerance to gemcitabine developed, or there was symptom progression, or no evidence of clinical benefit. […] The patient's physician made the decision concerning 5-FU chemotherapy or best supportive care.\nEfficacy was evaluated based upon survival time, defined as the time from Baseline/Treatment Day 1 to the time of death from any cause. Time to progression of symptoms, consisting of: time to increase in pain (with consideration of analgesic consumption), time to deterioration in ECOG score, and time to weight loss.",
  "key": {"[1]": {"settings": "ECOG 0 or 1, treated in Stage 3, of 25 (VIRULIZIN plus 5-FU) / of 16 (placebo plus 5-FU) patients"}},
  "data": [
    {"smiles": "O=c1[nH]cc(F)c(=O)[nH]1", "note": "[Placebo plus 5-FU, 5-fluorouracil]", "values": [
      {"measurement": "number of patients alive (censored) at the end of the study data collection period", "setting": "[1]", "result": "None"},
      {"measurement": "percent of patients alive (censored) at the end of the study data collection period", "setting": "[1]", "result": 0, "unit": "%"},
      {"measurement": "Median survival time from entry into study Stage 3 to death from any cause", "setting": "ECOG 0 or 1", "result": 2.94, "unit": "months"},
      {"measurement": "Median survival time from entry into study Stage 3 to death from any cause", "setting": "ECOG 2", "result": 3.42, "unit": "months"},
      {"measurement": "Median survival time from entry into study Stage 3 to death from any cause", "setting": "ECOG 2, listed as placebo plus 5-FU", "result": 3.43, "unit": "months"},
      {"measurement": "Median survival time from entry into study Stage 3 to death from any cause", "setting": "Overall", "result": 3.22, "unit": "months"}
    ]}
  ]
}
